# Experimental data as given in US9012625B2, “Method for the synthesis of a trisaccharide” (Glycom A/S, priority 2009, dated 2015).
# Experiment: solubility in hot methanol
# Assay type: physicochemical
# Conditions: 3 volumes
compound,measurement,value
"CC1O[C@@H](OC2C(O)[C@@H](O)C(CO)O[C@H]2O[C@@H]2C(CO)OC(O)C(O)C2O)C(OCc2ccccc2)C(OCc2ccccc2)[C@@H]1OCc1ccccc1 (stereo partly drawn) [anhydrous derivative, O-(2,3,4-tri-O-benzyl-α-L-fucopyranosyl)-(1→2)-O-β-D-galactopyranosyl-(1→4)-D-glucose]",solubility in hot methanol,excellent solubility
